In patent US9394297B2, “Amides as pim inhibitors” (AMGEN INC., priority 2012, dated 2016) one finds IC50 data, which are given here for 24 molecules.

One assay has as its system KMS-12-BM cell lines. The experiment in a line: KMS12 #2 flow cytometry assay (phospho-BAD Ser112). It is filed as cell-based. To be noted: KMS-12-BM cells, pBAD Ser112 by flow cytometry, 110 min with compound, read-out: KMS-12-Flow IC50 IP. For orientation: A flow cytometer gives signals particle by particle.
The next assay deals with Pim-1 (Homo sapiens (Human), UniProt P11309). Briefly: Pim-Mn enzyme assay (HTRF, 384-well), Pim-1. To be noted: read-out: Pim-1-Mn IC50 IP. In kind it is biochemical.
Another assay has as its target Pim-2 (Homo sapiens (Human), UniProt Q9P1W9). Briefly: Pim-Mn enzyme assay (HTRF, 384-well), Pim-2. In kind it is biochemical. To be noted: read-out: Pim-2-Mn IC50 IP. On the technique in general: In TR-FRET formats the signal depends on donor and acceptor labels being close together.
Setting [1] is: Pim-1 enzyme 5 pM, ATP 1.5 μM, BAD (S112) 0.5 μM, HTRF, 22-point curve.
[2] abbreviates: Pim-2 enzyme 0.5 pM, ATP 1.5 μM, BAD (S112) 0.5 μM, HTRF, 22-point curve.

Where two headings read alike, the source gives them in different places.

Pim-1, sequence (P11309 whole entry): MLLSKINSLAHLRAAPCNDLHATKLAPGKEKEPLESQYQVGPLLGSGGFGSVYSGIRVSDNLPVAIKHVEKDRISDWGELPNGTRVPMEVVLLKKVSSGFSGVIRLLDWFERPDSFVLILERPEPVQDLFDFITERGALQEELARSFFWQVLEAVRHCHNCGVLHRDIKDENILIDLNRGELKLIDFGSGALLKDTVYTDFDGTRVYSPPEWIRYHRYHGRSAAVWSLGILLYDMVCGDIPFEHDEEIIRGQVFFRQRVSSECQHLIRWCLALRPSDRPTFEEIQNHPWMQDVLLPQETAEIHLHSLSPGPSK
Pim-2, sequence (Q9P1W9 whole entry): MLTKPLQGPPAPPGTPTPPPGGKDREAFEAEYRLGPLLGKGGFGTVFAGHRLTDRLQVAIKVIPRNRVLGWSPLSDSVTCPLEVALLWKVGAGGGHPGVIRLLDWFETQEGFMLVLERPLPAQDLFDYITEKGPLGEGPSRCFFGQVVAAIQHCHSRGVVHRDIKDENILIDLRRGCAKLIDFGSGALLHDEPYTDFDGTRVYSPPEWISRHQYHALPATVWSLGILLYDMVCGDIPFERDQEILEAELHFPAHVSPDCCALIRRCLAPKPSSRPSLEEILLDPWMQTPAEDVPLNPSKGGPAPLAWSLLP

As usually defined, the IC50 is the point on the concentration scale where inhibition reaches its midpoint. `Cc1nc2cccc(-c3cc4c([nH]3)C(COCc3ccccc3)NC4=O)c2nc1NC(C)(C)C` (racemic) [Example 468, (6R)-6-((benzyloxy)methyl)-2-(3-(tert-butylamino)-2-methyl-5-quinoxalinyl)-5,6-dihydropyrrolo[3,4-b]pyrrol-4(1H)-one and (6S)-6-((benzyloxy)methyl)-2-(3-(tert-butylamino)-2-methyl-5-quinoxalinyl)-5,6-dihydropyrrolo[3,4-b]pyrrol-4(1H)-one]: the IC50 in the assay with KMS-12-BM cell lines (Homo sapiens, 110 min) turned out to be 3.39 µM; at Pim-1 (setting [1]) it was 0.0054 µM; on Pim-2 (setting [2]), 0.00794 µM.
Taken in the same sequence, the figures for `COCCN(CCOC)CCC(C)(C)Nc1nc2c(-c3cc4c([nH]3)CNC4=O)cccc2c(=O)n1C` [Example 473, 2-((4-(bis(2-methoxyethyl)amino)-2-methylbutan-2-yl)amino)-3-methyl-8-(4-oxo-1,4,5,6-tetrahydropyrrolo[3,4-b]pyrrol-2-yl)quinazolin-4(3H)-one] were 12.4 µM, 0.0114 µM and 0.036 µM.
As for `Cc1nc2ccc(F)c(-c3cc4c([nH]3)[C@H]([C@H](C)O)NC4=O)c2nc1NC1CC1` [Example 354, (R)-2-(3-(cyclopropylamino)-6-fluoro-2-methylquinoxalin-5-yl)-6-((S)-1-hydroxyethyl)-5,6-dihydropyrrolo[3,4-b]pyrrol-4(1H)-one], the IC50 with KMS-12-BM cell lines (Homo sapiens, 110 min) was 2.31 µM; at Pim-1 (setting [1]) it was 0.00708 µM; on Pim-2 (setting [2]) it was 0.0164 µM.
For `C[C@H]1NC(=O)c2cc(-c3cccc4c(=O)[nH]c(NC(C)(C)C)nc34)[nH]c21` [Example 408, 2-(tert-butylamino)-8-((6R)-6-methyl-4-oxo-1,4,5,6-tetrahydropyrrolo[3,4-b]pyrrol-2-yl)-4(3H)-quinazolinone], in that order: 0.047 µM, 0.0001 µM and 0.00024 µM.
Regarding `Cc1nc2cccc(-c3cc4c([nH]3)CCNC4=O)c2nc1N[C@H]1C[C@@H](NC(=O)OC(C)(C)C)C1` [Example 434, tert-butyl ((1s,3s)-3-((3-methyl-8-(4-oxo-4,5,6,7-tetrahydro-1H-pyrrolo[3,2-c]pyridin-2-yl)quinoxalin-2-yl)amino)cyclobutyl)carbamate], the IC50 with KMS-12-BM cell lines came to 1.31 µM; on Pim-1 (setting [1]), 0.0181 µM; on Pim-2 (setting [2]), 0.0172 µM.
For `Cc1nc2cccc(-c3cc4c([nH]3)[C@H](CO)NC4=O)c2nc1NC1(C)CC1` [Example 362, (R)-6-(hydroxymethyl)-2-(2-methyl-3-((1-methylcyclopropyl)amino)quinoxalin-5-yl)-5,6-dihydropyrrolo[3,4-b]pyrrol-4 (1H)-one], the IC50 in the assay on KMS-12-BM cell lines (Homo sapiens, 110 min) stood at 0.251 µM; on Pim-1 (setting [1]), 0.00173 µM; at Pim-2 (setting [2]) it was 0.00182 µM.
Taken in the same sequence, the figures for `Cc1nc2cccc(-c3cc4c([nH]3)CCN(CO)C4=O)c2nc1NC(C)(C)C` [Example 299, 2-(3-(tert-butylamino)-2-methylquinoxalin-5-yl)-5-(hydroxymethyl)-6,7-dihydro-1H-pyrrolo[3,2-c]pyridin-4(5H)-one] were over 40 µM, 0.007 µM and 0.009 µM.
Taken in the same sequence, the figures for `Cc1nc2cccc(-c3cc4c([nH]3)C3(CCOCC3)NC4=O)c2nc1NC(C)(C)C` [Example 409, 2′-(3-(tert-butylamino)-2-methyl-5-quinoxalinyl)-2,3,5,6-tetrahydro-1′H-spiro[pyran-4,6′-pyrrolo[3,4-b]pyrrol]-4′(5′H)-one] were 5.76 µM, 0.0317 µM and 0.0626 µM.
Regarding `Cc1nc2cccc(-c3cc4c([nH]3)CCNC4=O)c2nc1Cl` [Example 425, 2-(3-Chloro-2-methylquinoxalin-5-yl)-6,7-dihydro-1H-pyrrolo[3,2-c]pyridin-4(5H)-one], the IC50 with KMS-12-BM cell lines (Homo sapiens, 110 min) was over 40 µM; on Pim-1 (setting [1]) it was 0.392 µM; at Pim-2 (setting [2]), 0.521 µM.
Taken in the same sequence, the figures for `Cc1nc2cccc(-c3cc4c([nH]3)[C@H](C)NC4=O)c2nc1NCC(F)(F)F` [Example 293, (6S)-6-methyl-2-(2-methyl-3-((2,2,2-trifluoroethyl)amino)-5-quinoxalinyl)-5,6-dihydropyrrolo[3,4-b]pyrrol-4(1H)-one] were 0.41 µM, 0.00637 µM and 0.00602 µM.
For `COCCOCCn1c(NC(C)(C)C)nc2c(-c3cc4c([nH]3)[C@@H](C)NC4=O)cccc2c1=O` [Example 474, 2-(tert-butylamino)-3-(2-(2-methoxyethoxyl)ethyl)-8-((6R)-6-methyl-4-oxo-1,4,5,6-tetrahydropyrrolo[3,4-b]pyrrol-2-yl)-4(3H)-quinazolinone], in that order: 0.121 µM, 0.00134 µM and 0.000917 µM.
`CC(C)(C)Nc1nc2c(-c3cc4c([nH]3)CCNC4=O)cccc2nc1N1CCC1` [Example 347, 2-(2-(1-azetidinyl)-3-(tert-butylamino)-5-quinoxalinyl)-1,5,6,7-tetrahydro-4H-pyrrolo[3,2-c]pyridin-4-one]: the concentration for half-maximal inhibition (IC50) in the assay with KMS-12-BM cell lines (Homo sapiens, 110 min) came out at 3.66 µM; at Pim-1, 0.00455 µM; at Pim-2, 0.0105 µM.
In the case of `Cc1nc2cccc(-c3cc4c([nH]3)[C@H](CO)NC4=O)c2nc1NC1CC1` [Example 367, (R)-2-(3-(cyclopropylamino)-2-methylquinoxalin-5-yl)-6-(hydroxymethyl)-5,6-dihydropyrrolo[3,4-b]pyrrol-4(1H)-one], the IC50 is 0.429 µM in the assay with KMS-12-BM cell lines (Homo sapiens, 110 min); 0.00381 µM on Pim-1 (setting [1]); 0.00368 µM at Pim-2 (setting [2]).
Taken in the same sequence, the figures for `Cc1cccnc1-c1nc2c(-c3cc4c([nH]3)CCNC4=O)cccc2nc1C` [Example 430, 2-(2-Methyl-3-(3-methylpyridin-2-yl)quinoxalin-5-yl)-6,7-dihydro-1H-pyrrolo[3,2-c]pyridin-4(5H)-one] were 24.8 µM, 0.2 µM and 0.257 µM.
Taken in the same sequence, the figures for `CC(C)(C)Nc1nc2c(-c3cc4c([nH]3)CCNC4=O)cccc2nc1C#N` [Example 309, 3-(tert-butylamino)-5-(4-oxo-4,5,6,7-tetrahydro-1H-pyrrolo[3,2-c]pyridin-2-yl)quinoxaline-2-carbonitrile] were 1.16 µM, 0.00355 µM and 0.00376 µM.
Taken in the same sequence, the figures for `CCOc1cnc2cccc(-c3cc4c([nH]3)CCNC4=O)c2n1` [Example 337, 2-(3-ethoxy-5-quinoxalinyl)-1,5,6,7-tetrahydro-4H-pyrrolo[3,2-c]pyridin-4-one] were 6.92 µM, 0.0719 µM and 0.0546 µM.
Take `Cc1nc2cccc(-c3cc4c([nH]3)CCNC4=O)c2nc1-c1ccccn1` [Example 429, 2-(2-Methyl-3-(pyridin-2-yl)quinoxalin-5-yl)-6,7-dihydro-1H-pyrrolo[3,2-c]pyridin-4(5H)-one]: the IC50 in the assay on KMS-12-BM cell lines (Homo sapiens, 110 min) worked out at 8.73 µM; on Pim-1 (setting [1]), 0.212 µM; on Pim-2 (setting [2]), 0.167 µM.
Regarding `Cc1nc2cccc(-c3cc4c([nH]3)C(C)(C)NC4=O)c2nc1NC(C)(C)C` [Example 466, 2-(3-(tert-butylamino)-2-methyl-5-quinoxalinyl)-6,6-dimethyl-5,6-dihydropyrrolo[3,4-b]pyrrol-4(1H)-one], the half-maximal inhibitory concentration (IC50) is 0.0755 µM with KMS-12-BM cell lines (Homo sapiens, 110 min); 0.00228 µM at Pim-1; 0.00193 µM at Pim-2.
On to `CN(c1ncc2cccc(-c3cc4c([nH]3)CCNC4=O)c2n1)C(C)(C)C` [Example 377, 2-(2-(tert-butyl(methyl)amino)quinazolin-8-yl)-6,7-dihydro-1H-pyrrolo[3,2-c]pyridin-4(5H)-one], for which the IC50 in the assay on KMS-12-BM cell lines (Homo sapiens, 110 min) was determined as 1.63 µM; on Pim-1 (setting [1]) it was 0.00243 µM; on Pim-2 (setting [2]) it was 0.00332 µM.
Taken in the same sequence, the figures for `CC(C)Nc1nc2c(-c3cc4c([nH]3)CCNC4=O)cccc2c(=O)n1-c1ccccc1` [Example 402, 2-((1-methylethyl)amino)-8-(4-oxo-4,5,6,7-tetrahydro-1H-pyrrolo[3,2-c]pyridin-2-yl)-3-phenyl-4(3H)-quinazolinone] were 0.59 µM, 0.00591 µM and 0.00587 µM.
`Cc1nc2cccc(-c3cc4c([nH]3)CNC4=O)c2nc1NC(C)(C)C` [Example 334, 2-(3-(tert-Butylamino)-2-methyl-5-quinoxalinyl)-5,6-dihydropyrrolo[3,4-b]pyrrol-4(1H)-one]: the IC50 in the assay on KMS-12-BM cell lines (Homo sapiens, 110 min) is 0.0438 µM; at Pim-1 (setting [1]), 0.00118 µM; on Pim-2 (setting [2]), 0.000882 µM.
For `C[C@H]1NC(=O)c2cc(-c3cccc4c(=O)n(C)c(OC5(C)CC5)nc34)[nH]c21` [Example 460, 3-methyl-2-((1-methylcyclopropyl)oxy)-8-((6R)-6-methyl-4-oxo-1,4,5,6-tetrahydropyrrolo[3,4-b]pyrrol-2-yl)-4(3H)-quinazolinone], the concentration for half-maximal inhibition (IC50) in the assay on KMS-12-BM cell lines (Homo sapiens, 110 min) turned out to be 0.094 µM; at Pim-1 (setting [1]) it was 0.000554 µM; at Pim-2 (setting [2]) it was 0.00101 µM.
As to `Cc1nc2cccc(-c3cc4c([nH]3)CNC4=O)c2nc1NC1(C)CC1` [Example 357, 2-(2-Methyl-3-((1-methylcyclopropyl)amino)quinoxalin-5-yl)-5,6-dihydropyrrolo[3,4-b]pyrrol-4(1H)-one], the IC50 in the assay with KMS-12-BM cell lines (Homo sapiens, 110 min) stood at 0.015 µM; at Pim-1, 0.000463 µM; at Pim-2 (setting [2]), 0.00057 µM.
Regarding `Cc1nc2cccc(-c3cc4c(n3C)CCNC4=O)c2nc1NC(C)(C)C` [Example 314, 2-(3-(tert-butylamino)-2-methylquinoxalin-5-yl)-1-methyl-6,7-dihydro-1H-pyrrolo[3,2-c]pyridin-4(5H)-one], the 50% inhibitory concentration (IC50) in the assay with KMS-12-BM cell lines (Homo sapiens, 110 min) is 6.73 µM; on Pim-1 (setting [1]), 0.00948 µM; on Pim-2 (setting [2]), 0.00858 µM.
